For one assay, the system named is P. aeruginosa LESB58. As to the kind of experiment: Cutaneous abscess mouse model (CFU). The format is in vivo, mice. As for the experimental part: For the cutaneous abscess model, the mice were randomly divided into 5 sets. The mice were anesthetized with isoflurane, their dorsal fur shaved, and their skin disinfected with 70% ethanol. An overnight culture of S. aureus MRSA or P. aeruginosa LESB58 was washed with 0.9% NaCl, and then a subcutaneous injection of 2 × 10^9 CFUs and an equal amount of sterile Cytodex microcarrier beads (20 mg.ml^−1, Sigma) for S. aureus MRSA, or 10^8 CFUs for P. aeruginosa were injected into the shaved area. […] Mice were monitored every day and then euthanized with CO2 on Day 6 or on Day 3. Abscesses were excised, measured, and homogenized in PBS using an Ultra-Turax. Serial dilutions of the samples were plated on BHI (MRSA) or 2YT medium (LESB58) plates and then incubated overnight at 37°C. Afterward, the CFUs were counted and expressed as log CFU/ml. Dermonecrosis areas were calculated according to the formula π × L × W. ATP levels were determined with an ATP assay kit (Promega) according to manufacturer instructions on sets of 5 colonies harboring the SCV phenotype, and sets of 5 colonies harboring a normal phenotype, after growth on BHI plates.

The test system of a further assay is S. aureus 33845. Nature of the assay: microbe, parasite or virus in culture. As to conditions: 33845. How it is done: (10−4 M final concentrations). At selected time intervals, 100 μl of reaction mixture was collected, quenched by 200 μl 95% EtOH, and adjusted at pH 2 to prevent peptide adsorption to serum proteins. […] Supernatants were analyzed by RP-HPLC on an Xbridge C18 column with a linear gradient of water, 0.08% TFA, and acetonitrile with 1% TFA. HPLC peak areas were used to calculate the percentages of intact compound remaining at the various time points. MIC and MBC values were determined in triplicate in many ESKAPE clinical isolates, including a dozen MDR S. aureus, by the broth microdilution method. Peptidomimetics and antibiotics were assayed in a concentration range of 1 to 128 μM. The bacterial inoculum (5 × 10^5 colony-forming units [CFUs]/well) was prepared in MHB or CAMHB (150 μl). A Biotek Synergy 2 spectrophotometer was used to record the results after 18–20 h incubation at 35°C (±2°C). […] After every hour of culture for 4 h, serial dilutions were plated on BHI plates and incubated overnight at 37°C, and then the CFUs were counted and expressed as log CFU/ml. Phosphate-buffered saline (PBS)-exposed S. aureus MRSA was included as a control.
Supplementary file pbio.3000337.s007.docx: S1 Table Antibacterial activity of the 4 peptidomimetics focusing on 9 S. aureus MDR clinical isolates. Clinical isolates BCB/POE and 740404 DUN are from human sepsis. The other strains are from catheter infections or suppurating wounds. Brilacidin was used as a control. MDR, multidrug resistant. (DOCX) Click here for additional data file.

In the next assay the test system is MRSA. Nature of the assay: In vivo resistance: kidney extracts plated on plates containing 1- to 8-fold peptide MIC (severe sepsis). In kind it is cell-based, S. aureus. As to conditions: kidneys at day 7 after repeated treatments, plates with drug at 2-fold MIC. As for the experimental part: For 15 d in MHB, MICs were determined daily for each pseudopeptide and their antibiotic controls. This was done using cells from the well in which the compound concentration was one-half of the MIC (1/2MIC). For each compound, the 1/2MIC well from the previous day’s MIC assay plate was re-suspended and the bacteria grown to a density of about 10^8 cells ml−1. The suspension was diluted in MHB or CAMHB (10^6 cells/ml) and then used to determine the MIC of the same compound determined by micro broth dilution. All MIC measurements were performed in duplicate. Aliquots of the 5 × 10^4 cell/ml dilutions for each 1/2MIC well were periodically plated on MHB and incubated at 35°C for 18 h to verify cell density by colony counts and for visual inspection of colony phenotypes. To control compound stability, peptide solution MICs were determined during and at the end of the 15 d and were compared to cells unexposed to antibiotics. In vivo resistance was also assessed in treated mice (1.5 mg.kg^−1) for 4 d (sepsis) or 6 d (skin abscesses). […] For severe sepsis and subcutaneous abscesses, in vivo resistance was determined by plating aliquots of crude kidney extracts or abscesses on plates containing 1-, 2-, 4-, or 8-fold the peptide MICs 7 or 3 d post infections, respectively.

The test system of a further assay is MRSA (Mu3). Nature of the assay: microbe, parasite or virus in culture. Particulars: 15 colonies. How it is done:
For 15 d in MHB, MICs were determined daily for each pseudopeptide and their antibiotic controls. This was done using cells from the well in which the compound concentration was one-half of the MIC (1/2MIC). For each compound, the 1/2MIC well from the previous day’s MIC assay plate was re-suspended and the bacteria grown to a density of about 10^8 cells ml−1. The suspension was diluted in MHB or CAMHB (10^6 cells/ml) and then used to determine the MIC of the same compound determined by micro broth dilution. All MIC measurements were performed in duplicate. Aliquots of the 5 × 10^4 cell/ml dilutions for each 1/2MIC well were periodically plated on MHB and incubated at 35°C for 18 h to verify cell density by colony counts and for visual inspection of colony phenotypes. To control compound stability, peptide solution MICs were determined during and at the end of the 15 d and were compared to cells unexposed to antibiotics. In vivo resistance was also assessed in treated mice (1.5 mg.kg^−1) for 4 d (sepsis) or 6 d (skin abscesses). […] The broth microdilution method was performed as per EUCAST recommendations on 5 independent colonies per mouse (3 mice per set, 15 colonies per drug tested). For severe sepsis and subcutaneous abscesses, in vivo resistance was determined by plating aliquots of crude kidney extracts or abscesses on plates containing 1-, 2-, 4-, or 8-fold the peptide MICs 7 or 3 d post infections, respectively.

Molecules are shown by their SMILES. “And” between values parts separate entries of the source, which are not always exact repeats. Identical values can stand only once. Starred links: 1 amine or outer side, 2 acyl side, 3 side chain; linkers in the order of their positions; H or OH if unused. Non-standard residues stand in square brackets, D forms with d. Residues, ends and D or L forms follow the SMILES beside them. azaβ3(1Nal) = O=C(CN(Cc1cccc2ccccc12)N[*:1])[*:2]

Regarding `CC(C)[C@@H]1NC(=O)[C@H](CCCNC(=N)N)NC(=O)[C@H](CCCNC(=N)N)NC(=O)CN(Cc2cccc3ccccc23)NC(=O)[C@H](Cc2ccccc2)NC(=O)CN(Cc2cccc3ccccc23)NC(=O)[C@H](CCCCN)NC1=O` [Pep19] (cyclo([azaβ3(1Nal)]F[azaβ3(1Nal)]RRVK)), the “CFU counts per abscess” value with P. aeruginosa LESB58 (cutaneous abscesses induced by P. aeruginosa in mice, repeated doses post-infection, 30mg/kg, second data set, individual values) is 5.3 log Cfu/ml and 4.34 log Cfu/ml and 3.16 log Cfu/ml and 3.11 log Cfu/ml and 2.85 log Cfu/ml and 6.21 log Cfu/ml and 4.95 log Cfu/ml. In addition, the “Reduction of the bacterial load of abscess” value in the assay on P. aeruginosa LESB58 (mice, P. aeruginosa LESB58, 30 mg.kg^−1 subcutaneous twice a day for 2 d, day 3) is listed as approximately 50 fold. Moreover, the MIC is given as 16 mg/L^-1 with S. aureus 33845; 8 (8.8) μM in the assay with MRSA (Mu3) (MRSA colonies from kidneys of septic mice, d4, single IV 1.5 mg.kg^−1 at 3 h or 15 h); 16 (16.2) μM against MRSA (Mu3) (MRSA colonies from mice skin abscess, d6, single IV 1.5 mg.kg^−1 at 24 h). In addition, the “Clones with increased resistance from kidneys” value with MRSA was “no clones with increased resistances were detected”.
